Experiments:
human IDO1 = target: T1, human IDO1 (Homo sapiens, UniProt P14902); experiment: human IDO1 biochemical assay (NFK GreenScreen); settings: human IDO1 biochemical assay
T1 construct: Full-length recombinant human and mouse IDO1 were expressed in Escherichia coli with a hexahistidine tag at the N-terminus; hexahistidine (N); made in house; host or cells: Escherichia coli

[1] = plasma protein binding, human; type: in vitro ADME; settings: column Human (predicted)
Procedure: (§1) Supplement DataSheet_1.docx, table 2: Table S2. Pharmacokinetic parameters of NTRC 3883-0 observed in mouse, rat, monkey and dog, and predicted for humans using allometric scaling. Data in bold are measured, while data in italics are calculated or predicted (for humans). The clearance (Cl) and volume of distribution at steady state (Vss | column: Human (predicted)

[2] = tested on: panel of 44 pharmacologically relevant receptors, ion channels, transporters and enzymes; experiment: Eurofins-CEREP selectivity panel; settings: 10 µM
[3] = tested on: CD8-positive T cells co-cultured with HEK-hIDO1 cells; experiment: co-culture assay of HEK-hIDO1 cells with PBMCs, CFSE proliferation; type: cell-based, human; settings: 7.5 µM Trp; 10 µM NTRC 3883-0, 1 µM epacadostat; 5 days
[4] = plasma protein binding, dog; type: in vitro ADME
Procedure: as §1, with “Dog” for “Human (predicted)”

[5] = in vivo pharmacokinetics, dog; set-up: species or system Beagle dogs; settings: Beagle, plasma; for clearance / Vd: intravenous; for Vd: read-out: Vss
Procedure: (§2) Pharmacokinetic properties of NTRC 3883-0 were determined in plasma following single oral (p.o.) and i.v. administration to male CD-1 mice (n = 6 per treatment group with three mice sampled per time point), Wistar rats (n = 3), cynomolgus monkey (n = 1) and Beagle dogs (n = 3). Formulations were prepared in DMSO, Kolliphor® EL, 5% D-mannitol in Elix water at a volume ratio of 1:1:8 for i.v. administration, and in 0.5% gelatin, 5% D-mannitol in Elix water for p.o. administration. Plasma samples were collected at eight to eleven time points up to 24 h after administration. Pharmacokinetic properties and required dosing in humans were predicted by allometric scaling by Karin Jorga Life Science Consulting (Basel, Switzerland) ( Figure S2 and Table S2 ).

dog whole blood = dog whole blood assay; type: cell-based; settings: Canis lupus familiaris
[6] = in vivo pharmacokinetics, mouse; set-up: species or system male CD-1 mice; settings: male; for clearance / Vd: intravenous; for Vd: read-out: Vss
Procedure: as §2

[7] = human pharmacokinetics predicted by allometric scaling; settings: predicted parameters, assuming 100% bioavailability
Procedure: as §2
Table S2. Pharmacokinetic parameters of NTRC 3883-0 observed in mouse, rat, monkey and dog, and predicted for humans using allometric scaling. Data in bold are measured, while data in italics are calculated or predicted (for humans). The clearance (Cl) and volume of distribution at steady state (Vss) in humans are predicted based on extrapolation of the parameters in the four species as shown in Supplementary Figure S2. […] The half-life (t1/2) in humans was predicted as Vss/Cl. […] ND = not determined.

[8] = tested on: B16F10-mIDO1 subline j19 in female B6D2F1 mice; experiment: B16F10-mIDO1 syngeneic mouse model, intervention study; type: in vivo
Description: For development of the mIDO1-overexpressing B16F10 mouse model, performed at Charles River Laboratories, female B6D2F1 mice were implanted subcutaneously with 1 × 10^6 parental B16F10 cells or B16F10-mIDO1 cells (subline i6 or j19) on day 0 with n = 10 mice per group. A tumor volume of 2000 mm^3 was used as the endpoint of the experiment for the individual animals. To determine the optimal inoculation cell concentration, mice were implanted with 3 × 10^5, 1 × 10^5 or 3 × 10^4 parental or mIDO1-overexpressing B16F10 cells (subline j19) with n = 5 mice per group. The same endpoint of the experiment was used as described above. […] For the intervention study, 3 x 10^5 cells of the B16F10-mIDO1 subline j19 were implanted on day 0, and treatment was started on day 3 with vehicle (DMSO, Kolliphor, 5% mannitol; […]. Four animals were excluded from analysis due to non-treatment-related deaths. Tumors and plasma were sampled 2 h post last dose.
[…]. After centrifugation, proteins were removed from the homogenized tissue supernatants and plasma samples by precipitation with methanol. The concentrations of inhibitor, Trp and Kyn were determined by LC-MS/MS.

human TDO = target: T2, human TDO (Homo sapiens, UniProt P48775); experiment: human TDO biochemical assay (NFK GreenScreen); settings: biochemical
T2 construct: hexahistidine (C); made in house; host or cells: Escherichia coli
T2 sequence (P48775 whole entry): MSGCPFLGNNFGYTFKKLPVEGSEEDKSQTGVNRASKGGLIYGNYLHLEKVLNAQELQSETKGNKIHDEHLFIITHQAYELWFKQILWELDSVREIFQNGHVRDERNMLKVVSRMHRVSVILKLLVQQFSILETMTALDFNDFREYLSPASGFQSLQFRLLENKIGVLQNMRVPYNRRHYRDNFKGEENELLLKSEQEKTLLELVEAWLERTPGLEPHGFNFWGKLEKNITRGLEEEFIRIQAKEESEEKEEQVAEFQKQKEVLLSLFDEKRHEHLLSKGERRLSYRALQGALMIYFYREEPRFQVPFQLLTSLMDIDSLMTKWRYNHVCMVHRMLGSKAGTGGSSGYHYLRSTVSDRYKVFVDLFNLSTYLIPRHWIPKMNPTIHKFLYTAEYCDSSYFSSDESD
Procedure: Full-length recombinant human and mouse IDO1 were expressed in Escherichia coli with a hexahistidine tag at the N-terminus, and purified by affinity chromatography to > 95% purity, as described ([8]). Human and mouse TDO containing a C-terminal hexahistidine tag were analogously expressed and purified to > 95% purity ([8]). The inhibitory activity of compounds was determined with the NFK GreenScreen assay technology under the conditions as described ([8]), except for the reaction buffer for IDO1, which was replaced by 50 mM NaH2PO4, pH 7.0, supplemented with 0.01% Tween-20 and 1% glycerol. Inhibition of the CYP3A4 and CYP2D6 enzymes was determined with the P450-Glo™ Screening System with Luciferin-IPA (Promega, #V9920 and V9890). For determination of IC50 values, the effect of inhibitors was determined in 10-point duplicate dose-response curves. Graphs were fitted to a four-parameter logistics equation in XLfit (ID Business Solutions, Ltd., Guildford, UK) from which IC50 values were calculated.

[9] = CD-1, plasma, mouse, body weight 0.036 kg
[10] = 100 mg/kg p.o. b.i.d. from day 3
[11] = 100 mg/kg p.o. b.i.d., 2 h post last dose

T1 sequence (P14902 whole entry): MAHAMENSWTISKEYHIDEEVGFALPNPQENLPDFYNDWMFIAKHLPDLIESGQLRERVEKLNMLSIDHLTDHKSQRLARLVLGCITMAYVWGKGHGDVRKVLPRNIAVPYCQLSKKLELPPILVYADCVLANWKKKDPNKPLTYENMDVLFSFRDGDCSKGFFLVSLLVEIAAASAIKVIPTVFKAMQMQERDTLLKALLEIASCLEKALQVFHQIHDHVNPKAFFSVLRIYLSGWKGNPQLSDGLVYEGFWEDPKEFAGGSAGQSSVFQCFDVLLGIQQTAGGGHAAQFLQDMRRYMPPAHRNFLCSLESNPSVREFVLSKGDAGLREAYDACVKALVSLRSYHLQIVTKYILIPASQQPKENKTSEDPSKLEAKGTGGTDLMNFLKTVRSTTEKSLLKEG

Question: Which results are given for `O=C1CN(C(=O)c2c(F)cccc2F)[C@H](c2cccc(Br)c2)N1O` [NTRC 3883-0]?
Answer: IC50 (human IDO1): 0.123 µM; fraction unbound [1]: 0.26; cross-reactivities in panel of 44 targets [2]: no cross-reactivities; effect on IDO1-mediated inhibition of T cell proliferation (in words) [3]: relieved the inhibitory effect; fraction unbound [4]: 0.21; half-life [5]: 2.8 h; clearance [5]: 28.6 mL/min/kg; clearance ([5]; body weight 10 kg): 286 mL/min; Vd ([5]; body weight 10 kg): 13.6 L; Vd [5]: 1.36 L/kg; bioavailability ([5]; po, p.o. versus i.v., read-out: Bioavailability (F)): 32%; IC90 (dog whole blood): 1 µM; half-life ([6]; CD-1, mouse, plasma): 5.2 h; clearance ([6]; CD-1, mouse, plasma): 18.5 mL/min/kg; Vd ([6]; CD-1, mouse, plasma): 3.63 L/kg; clearance [6, 9]: 0.667 mL/min; Vd [6, 9]: 0.131 L; minimum dose required to reach a target concentration of 1 μM on average during the dosing interval [7]: 1725 mg per day; times lower intratumoral levels of Kyn compared to epacadostat ([8]; 100 mg/kg p.o. b.i.d.): 3.6 times; tumor growth corrected for the variation in time until tumor establishment [8, 10]: delay in tumor growth; tumor growth in comparison to vehicle-treated animals [8, 10]: no effect; times lower inhibitor level in plasma compared to epacadostat [8, 11]: 1.8 times; times lower inhibitor level in the tumors compared to epacadostat [8, 11]: 2.2 times; intratumoral Trp levels ([8]; 100 mg/kg p.o. b.i.d., LC-MS/MS): slightly more efficient in increasing Trp; inhibition at 31.6 µM (human TDO; @ 31,600 nM, read-out: inhibition hTDO): < 20%; activity on human TDO (in words) (human TDO; highest tested concentration 31.6 µM): inactive
